Target: Substance-P receptor (Homo sapiens, UniProt P25103)
Assay: Displacement of [125]Substance P Binding from human Neurokinin NK1 receptor in CHO Cells

Sequence of Substance-P receptor (P25103 whole entry): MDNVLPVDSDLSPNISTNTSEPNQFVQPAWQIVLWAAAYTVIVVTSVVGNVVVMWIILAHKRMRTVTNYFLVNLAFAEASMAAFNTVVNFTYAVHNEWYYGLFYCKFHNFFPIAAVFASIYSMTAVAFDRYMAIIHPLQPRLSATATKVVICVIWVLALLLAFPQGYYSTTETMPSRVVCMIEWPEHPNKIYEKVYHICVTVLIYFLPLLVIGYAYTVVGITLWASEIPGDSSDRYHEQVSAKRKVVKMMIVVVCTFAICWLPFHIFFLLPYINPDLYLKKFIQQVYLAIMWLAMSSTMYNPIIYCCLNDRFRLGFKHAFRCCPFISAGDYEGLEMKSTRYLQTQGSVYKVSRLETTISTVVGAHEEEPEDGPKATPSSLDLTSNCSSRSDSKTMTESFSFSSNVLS

Row | Structure (SMILES) | IC50
1 | Cc1cccc(CO[C@H]2C3CCN(CC3)[C@H]2C(c2ccccc2)c2ccccc2)c1 | 21 nM
2 | O=C(N[C@H]1C2CCN(CC2)[C@H]1C(c1ccccc1)c1ccccc1)c1ccccc1 | > 1000 nM
3 | O=S(=O)(N[C@H]1C2CCN(CC2)[C@H]1C(c1ccccc1)c1ccccc1)c1ccccc1 | > 1000 nM
4 | c1ccc(CCN[C@H]2C3CCN(CC3)[C@H]2C(c2ccccc2)c2ccccc2)cc1 | 700 nM
5 | O=C(Nc1ccccc1)N[C@H]1C2CCN(CC2)[C@H]1C(c1ccccc1)c1ccccc1 | > 1000 nM
6 | Cc1ccccc1CO[C@H]1C2CCN(CC2)[C@H]1C(c1ccccc1)c1ccccc1 | 183 nM
7 | Cc1ccc(C)c(CO[C@H]2C3CCN(CC3)[C@H]2C(c2ccccc2)c2ccccc2)c1 | 48 nM
8 | O=C(Nc1ccccc1)O[C@H]1C2CCN(CC2)[C@H]1C(c1ccccc1)c1ccccc1 | > 1000 nM
9 | S=C(Nc1ccccc1)N[C@H]1C2CCN(CC2)[C@H]1C(c1ccccc1)c1ccccc1 | > 1000 nM
10 | O=C(N[C@H]1C2CCN(CC2)[C@H]1C(c1ccccc1)c1ccccc1)Oc1ccccc1 | > 1000 nM
11 | c1ccc(CO[C@H]2C3CCN(CC3)[C@H]2C(c2ccccc2)c2ccccc2)cc1 | 110000 nM
12 | Cc1ccc(CO[C@H]2C3CCN(CC3)[C@H]2C(c2ccccc2)c2ccccc2)cc1 | 290 nM
13 | Cc1ccc(CO[C@H]2C3CCN(CC3)[C@H]2C(c2ccccc2)c2ccccc2)cc1C | 197 nM
14 | c1ccc(CN[C@H]2C3CCN(CC3)[C@H]2C(c2ccccc2)c2ccccc2)cc1 | 150 nM
15 | Cc1cc(C)cc(CO[C@H]2C3CCN(CC3)[C@H]2C(c2ccccc2)c2ccccc2)c1 [L-706125] | 1 nM

— ChEMBL document CHEMBL1126513, “Quinuclidine-based NK-1 antagonists I: 3-benzyloxy-1-azabicyclo[2.2.2]octanes” (Bioorg Med Chem Lett, 1993)
